Columns and labels:
HT29 = test: cells; format: cell-based; conditions: Homo sapiens; for GI50 / IC (TGI) / CC50: HT-29, 48 h, HT29, 48 hours exposure, SRB; for CC50: read-out: LC50 (the source's name)
Source text: (§1) The finality of these assays is to interrupt the growth of a “in vitro” tumor cell culture by means of a continued exhibition of the cells to the sample to be testing.
(§2) A colorimetric type of assay, using sulphorhodamine B (SRB) reaction has been adapted for a quantitative measurement of cell growth and viability [following the technique described by Philip Skehan, et al. (1990), New colorimetric cytotoxicity assay for anticancer drug screening, J. Natl. Cancer Inst., 82:1107-1112]
(§3) This form of the assay employs 96 well cell culture microplates of 9 mm diameter (Faircloth, 1988; Mosmann, 1983). Most of the cell lines are obtained from American Type Culture Collection (ATCC) derived from different human cancer types.
(§4) Cells are maintained in RPMI 1640 10% FBS, supplemented with 0.1 g/l penicillin and 0.1 g/l streptomycin sulphate and then incubated at 37° C., 5% CO2 and 98% humidity. For the experiments, cells were harvested from subconfluent cultures using trypsin and resuspended in fresh medium before plating.
(§5) Cells are seeded in 96 well microtiter plates, at 5×10^3 cells per well in aliquots of 195 μl medium, and they are allowed to attach to the plate surface by growing in drug free medium for 18 hours. Afterward, samples are added in aliquots of 5 μl in a ranging from 10 to 10^−8 μg/ml, dissolved in DMSO/EtOH/PBS (0.5:0.5:99). After 48 hours exposure, the antitumor effect are measured by the SRB methodology: cells are fixed by adding 50 μl of cold 50% (wt/vol) trichloroacetic acid (TCA) and incubating for 60 minutes at 4° C. Plates are washed with deionized water and dried. One hundred μl of SRB solution (0.4% wt/vol in 1% acetic acid) is added to each microtiter well and incubated for 10 minutes at room temperature. Unbound SRB is removed by washing with 1% acetic acid. Plates are air dried and bound stain is solubilized with Tris buffer. Optical densities are read on a automated spectrophotometric plate reader at a single wavelength of 490 nm.
(§6) The values for mean+/− SD of data from triplicate wells are calculated. Some parameters for cellular responses can be calculated: GI=growth inhibition, TGI=total growth inhibition (cytostatic effect) and LC=cell killing (cytotoxic effect).

A549 = test: cells; format: cell-based; conditions: Homo sapiens; for GI50 / CC50 / IC (TGI): A549, 48 h, A549, 48 hours exposure, SRB; for GI50: read-out: GI50; for CC50: read-out: LC50 (the source's name); for IC (TGI): read-out: TGI
Source text: as §1, §2, §3, §4, §5, §6

| Compound | IC50 (HT29; HT-29, HT29) [nM] | IC50 (A549; A549) [nM] | GI50 (HT29) [nM] | IC (TGI) (HT29) [nM] | CC50 (HT29) [nM] | GI50 (A549) [nM] | CC50 (A549) [nM] | IC (TGI) (A549) [nM] |
| --- | --- | --- | --- | --- | --- | --- | --- | --- |
| COc1c(C)cc2c(c1O)[C@@H]1C3[C@@H]4SC[C@]5(NCCc6c5[nH]c5ccccc65)C(=O)COC[C@@H](c5c6c(c(C)c(OC(C)=O)c54)OCO6)N3[C@@H](C#N)[C@H](C2)N1C (some centres unmarked) [Compound 1] | 1.31 | 1.31 |  |  |  |  |  |  |
| COc1ccc2[nH]c3c(c2c1)CCN[C@]31CS[C@@H]2c3c(OC(C)=O)c(C)c4c(c3[C@H](COCC1=O)N1C2[C@H]2c3c(cc(C)c(OC)c3O)C[C@@H]([C@@H]1C#N)N2C)OCO4 (some centres unmarked) [Compound 2] |  |  | 1.26 | 1.26 | 63000 | 0.63 | 63000 | 6.3 |
| COc1c(C)cc2c(c1O)[C@@H]1C3[C@@H]4SC[C@]5(NCCc6c5[nH]c5c(OCc7ccccc7)cccc65)C(=O)COC[C@@H](c5c6c(c(C)c(OC(C)=O)c54)OCO6)N3[C@@H](C#N)[C@H](C2)N1C (some centres unmarked) [Compound 3] |  |  | 230 | 230 | 57500 | 345 | 57500 | 3450 |
| COc1c(C)cc2c(c1O)[C@@H]1C3[C@@H]4SC[C@]5(NCCc6c5[nH]c5ccc(OCc7ccccc7)cc65)C(=O)COC[C@@H](c5c6c(c(C)c(OC(C)=O)c54)OCO6)N3[C@@H](C#N)[C@H](C2)N1C (some centres unmarked) [Compound 4] |  |  | 2300 | 2300 | 11500 | 2300 | 11500 | 6900 |
| COc1c(C)cc2c(c1O)[C@@H]1C3[C@@H]4SC[C@]5(NCCc6c5[nH]c5ccc(C)cc65)C(=O)COC[C@@H](c5c6c(c(C)c(OC(C)=O)c54)OCO6)N3[C@@H](C#N)[C@H](C2)N1C (some centres unmarked) [Compound 5] |  |  | 12.9 | 12.9 | 5140 | 12.9 | 12900 | 129 |
| COc1c(C)cc2c(c1O)[C@@H]1C3[C@@H]4SC[C@]5(NCCc6c5[nH]c5ccc(O)cc65)C(=O)COC[C@@H](c5c6c(c(C)c(OC(C)=O)c54)OCO6)N3[C@@H](C#N)[C@H](C2)N1C (some centres unmarked) [Compound 6] |  |  | 5.13 | 5.13 | 5130 | 5.13 | 12800 | 51.3 |
| COc1c(C)cc2c(c1O)[C@@H]1C3[C@@H]4SC[C@]5(NCCc6c5[nH]c5cc(F)ccc65)C(=O)COC[C@@H](c5c6c(c(C)c(OC(C)=O)c54)OCO6)N3[C@@H](C#N)[C@H](C2)N1C (some centres unmarked) [Compound 7] |  |  | 63.9 | 63.9 | 1280 | 767 | 1280 | 128 |
| COc1c(C)cc2c(c1O)[C@@H]1C3[C@@H]4SC[C@]5(C(=O)COC[C@@H](c6c7c(c(C)c(OC(C)=O)c64)OCO7)N3[C@@H](C#N)[C@H](C2)N1C)c1[nH]c2ccc(O)cc2c1CCN5C (some centres unmarked) [Compound 8] |  |  | 2.52 | 2.52 | 5040 | 2.52 | 12600 | 10.1 |
| COc1ccc2c3c([nH]c2c1)[C@@]1(CS[C@@H]2c4c(OC(C)=O)c(C)c5c(c4[C@H](COCC1=O)N1C2[C@H]2c4c(cc(C)c(OC)c4O)C[C@@H]([C@@H]1C#N)N2C)OCO5)NCC3 (some centres unmarked) [Compound 9] |  |  | 378 | 378 | 12600 | 25.2 | 8820 | 101 |
| COc1c(C)cc2c(c1O)[C@@H]1C3[C@@H]4SC[C@]5(NCCc6c5[nH]c5ccc(F)cc65)C(=O)COC[C@@H](c5c6c(c(C)c(OC(C)=O)c54)OCO6)N3[C@@H](C#N)[C@H](C2)N1C (some centres unmarked) [Compound 10] |  |  | 40.3 | 12800 | 12800 | 39.1 | 12800 | 128 |
